Converted amounts (≈) assume the structure as drawn.
Legend:
[1] = system: Salmonella Enteritidis (ATCC 13076); test: microbe, parasite or virus in culture; conditions: Salmonella enterica, ATCC13076|ENTERITIDIS, 24 h, read-out: Minimum Inhibitory Concentration (MIC)
Procedure: A Petroff Hausser counting chamber was used to determine the level of inoculum.
An Optimax microtiter plate reader (Molecular Devices, Sunnyvale, Calif.) at 405 nm wavelength was used to measure the optical density of the suspension in each well. Plates were read kinetically over 24 h. The temperature was maintained at 35° C. All results reflect the average optical density measurements of four microtiter wells. […] A 100 μl aliquot of test organism and a 100 μl aliquot of experimental treatment were dispensed into individual microtiter plate wells.

[2] = system: E. coli O157:H7 (ATCC 35150); test: Microtiter plate assay, CPC and propionic acid, abbreviated 4×4 matrix (Experiment 2); type: cell-based
Procedure: (§1) The 4×4 matrix was either used in its entirety or in an abbreviated format as deemed appropriate by previous research conducted with similar organisms using a mixed organic acid blend.
(§2) Fifteen formulations were prepared using the incomplete 4×4 matrix design in Table 3.
(§3) Four test organisms—Salmonella Enteritidis (ATCC 13076), Staphylococcus aureus (ATCC 25923) E. coli O157:H7 (ATCC 35150) and Listeria monocytogenes (ATCC 15313)—were selected for use in these screening assays. […] Propionic acid was obtained from Kemin Americas, Inc (Des Moines, Iowa). S. Enteriditis, S. aureus and E. coli were grown aerobically in either Tryptic Soy Broth (TSB) or Nutrient Broth (NB) for 24 h at 37° C. L. monocytogenes was grown aerobically in Brain Heart Infusion Broth (BHI) for 24 h at 37° C. Test inocula were prepared to achieve a 10^6 cfu/ml suspension of bacterial cells. A Petroff Hausser counting chamber was used to determine the level of inoculum.
(§4) An Optimax microtiter plate reader (Molecular Devices, Sunnyvale, Calif.) at 405 nm wavelength was used to measure the optical density of the suspension in each well. Plates were read kinetically over 24 h. The temperature was maintained at 35° C. All results reflect the average optical density measurements of four microtiter wells. Treatments were prepared in sterile RO at the inclusion levels noted in Tables 1-2. A 100 μl aliquot of test organism and a 100 μl aliquot of experimental treatment were dispensed into individual microtiter plate wells. […] Positive controls consisting of 100 μl of test organism in NB or BHI and 100 μl of sterile water and a negative control consisting of 100 μl of NB (no organisms) and 100 μl of sterile water were also used.

[3] = system: Listeria monocytogenes (ATCC 15313); test: as above; type: cell-based; conditions: L. monocytogenes
Procedure: as §1, §2, §3, §4

[4] = system: Staphylococcus aureus (ATCC 25923); test: Microtiter plate assay, CPC and propionic acid, 4×4 matrix (Experiment 2); type: cell-based; conditions: S. aureus
Procedure: as §1, §2, §3
An Optimax microtiter plate reader (Molecular Devices, Sunnyvale, Calif.) at 405 nm wavelength was used to measure the optical density of the suspension in each well. Plates were read kinetically over 24 h. The temperature was maintained at 35° C. All results reflect the average optical density measurements of four microtiter wells. Treatments were prepared in sterile RO at the inclusion levels noted in Tables 1-2. […]

[5] = system: E. coli O157:H7 (ATCC 35150); test: Microtiter plate assay, CPC and mixed organic acids (Experiment 3); type: cell-based
Procedure: (§5) Fifteen formulations were prepared using the incomplete 4×4 matrix design in Table 8.
(§6) Two test organisms—Salmonella Enteritidis (ATCC 13076) and E. coli O157:H7 (ATCC 35150)—were screened. Salmonella Enteritidis was grown aerobically in Nutrient Broth (NB) for 24 h at 37° C. E. coli was grown in NB for 6 h at 37° C. Test inocula were prepared to achieve a 10^6 cfu/ml suspension of bacterial cells. A Petroff Hausser counting chamber was used to determine the level of inoculum.
(§7) An Optimax microtiter plate reader (Molecular Devices, Sunnyvale, Calif.) at 405 nm wavelength was used to measure the optical density of the suspension in each well. Plates were read kinetically over 24 h. The temperature was maintained at 35° C. All results reflect the average optical density measurements of four microtiter wells. Treatments were prepared in sterile RO at the inclusion levels noted in Table 1. A 100 μl aliquot of test organism and a 100 μl aliquot of experimental treatment were dispensed into individual microtiter plate wells. Bacteria cultures were diluted in Nutrient Broth (NB) prior to inoculation into the wells. Positive controls consisting of 100 μl of test organism in NB and 100 μl of sterile water and a negative control consisting of 100 μl of NB (no organisms) and 100 μl of sterile water were also used.

[6] = system: Salmonella Enteritidis (ATCC 13076); test: as above; type: cell-based
Procedure: as §5, §6, §7

[7] = system: Salmonella Enteritidis (ATCC 13076); test: Microtiter plate assay, CPC and acetic acid (Experiment 4); type: cell-based; conditions: S. Enteritidis, acetic acid treatment alone
Procedure: Test inocula were prepared to achieve a 10^6 cfu/ml suspension of bacterial cells. A Petroff Hausser counting chamber was used to determine the level of inoculum.
as §4, with “Table 1.” for “Tables 1-2.”, “NB” for “NB or BHI”

[8] = system: Salmonella Enteritidis (ATCC 13076); test: Microtiter plate assay, CPC and propionic acid, 3×3 matrix (Experiment 2); type: cell-based; conditions: propionic acid alone, previous experimentation
Procedure: as §1
Eight formulations were prepared using the incomplete 3×3 matrix design in Table 2. […] Positive and negative controls were included as described in Experiment 1.
Propionic acid was obtained from Kemin Americas, Inc (Des Moines, Iowa). S. Enteriditis, S. aureus and E. coli were grown aerobically in either Tryptic Soy Broth (TSB) or Nutrient Broth (NB) for 24 h at 37° C. L. monocytogenes was grown aerobically in Brain Heart Infusion Broth (BHI) for 24 h at 37° C.
Plates were read kinetically over 24 h. The temperature was maintained at 35° C. […] Treatments were prepared in sterile RO at the inclusion levels noted in Tables 1-2.

C=O [37% formaldehyde, formaldehyde]
MIC [1]: ~50 µg/mL (≈ 1670 µM)

CCCCCCCCCCCCCCCC[n+]1ccccc1 [CPC, Cetylpyridinium chloride]
propionic acid substituted by 1 ppm CPC ([2]; E. coli O157:H7): 50 ppm
propionic acid substituted by 1 ppm CPC [3]: > 200 ppm
propionic acid substituted by 1 ppm CPC [4]: approximately 200 ppm
mixed organic acids substituted by 1 ppm CPC [5]: 50 ppm
mixed acids substituted by 1 ppm CPC [6]: 50 ppm

CC(=O)O [acetic acid]
concentration that completely inhibited growth [7]: 250 ppm

CCC(=O)O [propionic acid]
concentration sufficient to inhibit growth [8]: 250 ppm
concentration that completely inhibited growth ([2]; E. coli, propionic acid treatment alone): 250 ppm
concentration shown to inhibit growth ([4]; propionic acid alone, previous experimentation): 250 ppm

From patent publication US20050250821A1, “Quaternary ammonium compounds in the treatment of water and as antimicrobial wash” (priority 2004, published 2005)
